Source: ChEMBL document CHEMBL1126227, “The synthesis and reactivity of ,-acetylenic and allenic sulfoxides and sulfones of dehydroepiandrosterone and their reactions with 1-butanethiol and glucose-6-phosphate dehydrogenase” (Bioorg Med Chem Lett, 1992)

Biological target: Glucose-6-phosphate dehydrogenase (Bos taurus) (UniProt Q5EM56)
Assay: Percent inhibition against bovine adrenal G6PDH (glucose-6-phosphate dehydrogenase) at a concentration of 10 e-5 M

Chain of Glucose-6-phosphate dehydrogenase (Bos taurus) (Q5EM56 as listed by the source): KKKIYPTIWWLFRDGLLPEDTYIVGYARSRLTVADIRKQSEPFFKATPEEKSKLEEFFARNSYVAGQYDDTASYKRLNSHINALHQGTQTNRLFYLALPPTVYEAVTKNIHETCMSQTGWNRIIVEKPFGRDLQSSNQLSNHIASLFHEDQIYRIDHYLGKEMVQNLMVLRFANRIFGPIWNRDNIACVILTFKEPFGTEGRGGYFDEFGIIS

`C#CC[S+]([O-])[C@H]1CC[C@@]2(C)C(=CCC3C2CC[C@]2(C)C(=O)CCC32)C1` (stereo not given in full) and `C=C=C[S+]([O-])[C@H]1CC[C@@]2(C)C(=CCC3C2CC[C@]2(C)C(=O)CCC32)C1` (stereo not given in full) cannot be ordered by inhibition: under 5% for the first, under 5% for the second.

Compared with `C#CCS[C@H]1CC[C@@]2(C)C(=CCC3C2CC[C@]2(C)C(=O)CCC32)C1` (stereo not given in full), `C#CCS(=O)(=O)[C@H]1CC[C@@]2(C)C(=CCC3C2CC[C@]2(C)C(=O)CCC32)C1` (stereo not given in full) is lower in inhibition: 47% for the first, 20% for the second.

`C=C=CS(=O)(=O)[C@H]1CC[C@@]2(C)C(=CCC3C2CC[C@]2(C)C(=O)CCC32)C1` (stereo not given in full) was tested, and the inhibition was 15%.
